Assay: Spectroscopic measurements (absorption, emission, quantum yield, extinction coefficient)
Assay type: physicochemical
[1] = absorption maximum, BDNCA library
[2] = difference of emission and absorption maxima
[3] = extinction coefficient, BDNCA library; in M-1 cm-1 (unit assumed)
[4] = fluorescence emission maximum, BDNCA library
[5] = BDNCA library, extinction coefficient; in M-1 cm-1 (unit assumed)
[6] = BDNCA library, fluorescence emission
[7] = BDNCA library, difference emission minus absorption

| SMILES | Abs [1] | Flu-Abs [2] | ε [3] | Flu [4] | Qunt. Yield (quantum yield, BDNCA library) | Qunt. Yield (BDNCA library) | Abs (BDNCA library, absorption) | ε [5] | Flu [6] | Flu-Abs [7] |
| --- | --- | --- | --- | --- | --- | --- | --- | --- | --- | --- |
| CC1=CC(/C=C/C2CCCCC2)=[N+]2C1=C(c1ccc(NC(=O)CCl)cc1)c1cccn1[B-]2(F)F [BDNCA-414] | 524 nm | 23 | 49,428 | 547 | 0.09 |  |  |  |  |  |
| CC1=CC(/C=C/c2ccccc2Oc2ccc(F)cc2)=[N+]2C1=C(c1ccc(NC(=O)CCl)cc1)c1cccn1[B-]2(F)F [BDNCA-341] | 558 nm | 22 | 58,764 | 580 | 0.10 |  |  |  |  |  |
| CC1=CC(/C=C/C=C/c2ccc(N(C)C)cc2)=[N+]2C1=C(c1ccc(NC(=O)CCl)cc1)c1cccn1[B-]2(F)F [BDNCA-96] |  |  |  |  |  | weak | 622 nm | 50,801 | weak |  |
| COc1cccc(/C=C/C2=[N+]3C(=C(c4ccc(NC(=O)CCl)cc4)c4cccn4[B-]3(F)F)C(C)=C2)c1OC [BDNCA-83] |  |  |  |  |  | 0.12 | 557 nm | 40,366 | 577 | 20 |
| CCCCc1ccc(/C=C/C2=[N+]3C(=C(c4ccc(NC(=O)CCl)cc4)c4cccn4[B-]3(F)F)C(C)=C2)cc1 [BDNCA-263] |  |  |  |  |  | 0.17 | 559 nm | 124,394 | 582 | 23 |
| COc1cccc(/C=C/C2=[N+]3C(=C(c4ccc(NC(=O)CCl)cc4)c4cccn4[B-]3(F)F)C(C)=C2)c1 [BDNCA-186] |  |  |  |  |  | 0.14 | 556 nm | 61,510 | 576 | 20 |
| Cc1cc(/C=C/c2ccc(-c3ccccc3)o2)n2c1C(c1ccc(NC(=O)CCl)cc1)=C1C=CC=[N+]1[B-]2(F)F [BDNCA-319] | 598 nm | 58 | 54,096 | 656 | 0.05 |  |  |  |  |  |
| CC1=CC(/C=C/c2c(C)nn(C)c2C)=[N+]2C1=C(c1ccc(NC(=O)CCl)cc1)c1cccn1[B-]2(F)F [BDNCA-430] | 567 nm | 34 | 37,895 | 601 | 0.09 |  |  |  |  |  |
| CC1=CC(/C=C/c2ccc(Cl)cc2Cl)=[N+]2C1=C(c1ccc(NC(=O)CCl)cc1)c1cccn1[B-]2(F)F [BDNCA-147] |  |  |  |  |  | 0.07 | 557 nm | 23,616 | 578 | 21 |
| Cc1ccc(/C=C/c2cc(C)c3n2[B-](F)(F)[N+]2=CC=CC2=C3c2ccc(NC(=O)CCl)cc2)cc1[N+](=O)[O-] [BDNCA-255] |  |  |  |  |  | 0.10 | 556 nm | 62,059 | 575 | 19 |
| CC1=CC(/C=C/c2cccc3ccccc23)=[N+]2C1=C(c1ccc(NC(=O)CCl)cc1)c1cccn1[B-]2(F)F [BDNCA-25] |  |  |  |  |  | 0.09 | 566 nm | 32,952 | 594 | 28 |
| CC1=CC(/C=C/c2ccc(Cl)c(F)c2)=[N+]2C1=C(c1ccc(NC(=O)CCl)cc1)c1cccn1[B-]2(F)F [BDNCA-437] | 556 nm | 19 | 47,506 | 575 | 0.09 |  |  |  |  |  |
| COc1ccc(Oc2ccc(/C=C/c3cc(C)c4n3[B-](F)(F)[N+]3=CC=CC3=C4c3ccc(NC(=O)CCl)cc3)cc2)cc1 [BDNCA-178] |  |  |  |  |  | 0.09 | 563 nm | 61,785 | 589 | 26 |
| CC1=CC(/C=C/c2ccc(-c3ccccc3)s2)=[N+]2C1=C(c1ccc(NC(=O)CCl)cc1)c1cccn1[B-]2(F)F [BDNCA-65] |  |  |  |  |  | 0.04 | 593 nm | 30,755 | 630 | 37 |
| Cc1cc(/C=C/c2ccc3c4c(cccc24)CC3)n2c1C(c1ccc(NC(=O)CCl)cc1)=C1C=CC=[N+]1[B-]2(F)F [BDNCA-89] |  |  |  |  |  | 0.08 | 580 nm | 33,501 | 634 | 54 |

From US9423396B2, “Bodipy structure fluorescence probes for diverse biological applications” (National University of Singapore, priority 2011, dated 2016)
